{"source": "patent US20120201908A1", "about": "“METHOD OF TREATING BIPOLAR DISORDER OR DEPRESSION USING AN ANTIESTROGEN” (Lunera Equities, LLLP, priority 2009, published 2012)", "key": {"[1]": {"settings": "in vivo; cited from earlier work"}, "[2]": {"test_system": "symptoms of bipolar disorder (bipolar disorder I)", "settings": "human, in vivo", "experimental": "(§1) The following list describes the drugs that were tried in combination with Eskalith: • 1. Depakote® (Divalproex Sodium Delayed Release Tablets) 50 mg daily. […] Tegretol XR® (Carbamazepine) 200 mg twice daily. […] Risperdal® (Risperidone) 3 mg per day. […] Prozac® (Olanzapine and Fluoxetine hydrochloride) 20 mg twice daily. […] Klonopin® (Clonazepam): originally from 2002 to 2009 was 8 mg to 10 mg daily for generalized anxiety. […] Lamictal® (Lamotrigine) Titration schedule over five weeks up to 250 mg twice daily."}, "[3]": {"test_system": "symptoms of bipolar disorder (bipolar disorder I)", "assay": "Case report Subject A: antiestrogen to treat symptoms of bipolar disorder", "settings": "for mood swings with the antiestrogen as only bipolar medication: tamoxifen citrate 20 mg base equivalents or Arimidex 1 mg, once every day or every other day", "experimental": "as §1"}, "[4]": {"test_system": "symptoms of bipolar disorder", "assay": "Pilot study Subject E: tamoxifen citrate added to bipolar medication, mood charts and psychiatrist visits", "type": "in vivo, human", "excerpt": "Subject E is a person and an insulin dependent diabetic. Subject E was diagnosed with bipolar disorder at […]. They have had surgery in the past for their knees, their neck and stitches for their head. Subject E has been institutionalized multiple times within the last nine years for their own protection. To date, no medications have seemed to help. Subject also has a history of alcoholism. Some complexity was expected in treatment due to diabetes."}, "[5]": {"test_system": "symptoms of bipolar disorder (bipolar disorder II)", "assay": "Case report Subject B: antiestrogen to treat symptoms of bipolar disorder", "type": "in vivo, human", "description": "Subject B is a person in good general physical health with a family history of bipolar disorder. Subject B underwent Cholecystectomy. Subject B was diagnosed with Meniere's Syndrome. Subject B was diagnosed with bipolar disorder II, at which time Lamictal was prescribed by a psychiatrist. […] The psychiatrist then prescribed Effexor XR® (venlafaxine hydrochloride) 75 mg/daily. […] A general physician prescribed 1.5 mg/Klonopin® (Clonazepam) daily.\nSubject B also remained mentally alert and stable. […] Currently, Subject B remains stable and emotionally level.\nSubject B's spouse states that Subject B is much more level, enjoys their life to a new degree, no longer loses control or becomes violent without warning. The entire family feels that life is much easier since Subject B began taking the antiestrogen."}, "[6]": {"test_system": "symptoms of bipolar disorder (bipolar I)", "assay": "Pilot study Subject D: tamoxifen citrate added to bipolar medication, mood charts and psychiatrist visits", "type": "in vivo, human", "excerpt": "Subject D is a person with a family history of bipolar disorder. Although Subject D had symptoms spanning Asperger's Syndrome, Bipolar I, Obsessive-Compulsive Disorder, Oppositional Defiant Disorder and anti-social traits, bipolar I was the diagnosis for several reasons, including the fact that it was present on both sides of the family and the symptoms were better suited to a bipolar diagnosis.\nFirst visit: Day 1. Due to Subject D's extreme condition, past hospitalizations and the complicated mixture of medications, the psychiatrist spent approximately one hour with the subject. […] Subject D was also given a copy of the Gary Sach's Mood Chart for the subject and their parent to be filled out daily for the psychiatrist's weekly review."}, "[7]": {"test_system": "mania in patients with bipolar disorder", "settings": "Yildiz et al. 2008; cited from earlier work"}, "[8]": {"test_system": "symptoms of bipolar disorder", "settings": "Subject F; for onset of noticed difference: tamoxifen citrate 20 mg qd", "excerpt": "In a preferred aspect, the patient fills out the mood chart on a regular basis and a family member, friend, roommate or clinical or institutional staff member who interacts with the patient on a regular basis, also records a parallel mood chart on a regular basis. […] In another aspect, a mood chart is started at the start of treatment with an antiestrogen.\nSubject F is a person who experienced a coronary three years prior to starting the study that their doctors blamed on stimulants used for ADD. Subject F had stents placed following the coronary. […] They maintain a job where they can do much of the work from home. It has been over a year since they were so severe they could not get out of bed or work. They have not had any extreme episodes in the immediate past. Subject F is nearsighted and has high blood pressure."}, "[9]": {"test_system": "symptoms of acute/severe depression", "assay": "Case report Subject C: antiestrogen in descending daily dosing to treat acute/severe depression", "type": "in vivo, human", "excerpt": "Subject C is a person in good general physical health with no previous history of mental illness or depression. Subject C was prescribed Dapsone as a child in order to treat to treat dermititis herpetiformis. Subject C received no medication in the past four years. In December 2008, Subject C became lethargic, uninterested in usually pleasurable activities, restless, and began oversleeping. After a full month, symptoms of depression became extreme and subject C was thought to be in danger of becoming suicidal.\nSubject C's last dose was 2.5 mg on the fifth day.\nSuicidal thoughts returned and Subject C considered dropping out of law school. Subject C started a descending dose course of Arimidex®; starting with a single dose of 1 mg on day one. Again, symptoms of depression faded noticeably within 8 hours, in a manner similar to that in response to treatment with tamoxifen. Subject C took single daily doses of Arimidex®; 0.5 mg on day two; 0.25 mg each on days three and four."}}, "note": "Like-named read-outs stand apart in the source and are kept apart here."}
{"smiles": "Nc1nnc(-c2cccc(Cl)c2Cl)c(N)n1", "note": "[Lamictal, Lamotrigine]", "values": [{"measurement": "patients who develop a rash", "setting": "[1]", "result": "5-10%"}, {"measurement": "side effects / reason for discontinuation of earlier medication", "setting": "[2]", "result": "worsening skin condition; aggravated linear IgA dermatosis"}, {"measurement": "effect of earlier medication on bipolar mood swings", "setting": "[3]; medication history before the antiestrogen", "result": "Mood swings were more frequent without Lamictal"}]}
{"smiles": "CC/C(=C(\\c1ccccc1)c1ccc(OCCN(C)C)cc1)c1ccccc1.O=C(O)CC(O)(CC(=O)O)C(=O)O", "note": "[Tamoxifen citrate, (Z)2-[4-(1,2-diphenyl-1-butenyl)phenoxy]-N,N-dimethylethanamine 2-hydroxy-1,2,3-propanetricarboxylate (1:1)]", "values": [{"measurement": "response to treatment", "setting": "[4]; Day 34, tamoxifen citrate 20 mg qd, other drugs cut in dose, listed as tamoxifen", "result": "responded well"}, {"measurement": "reduction of concurrent bipolar medication", "setting": "[4]; to Day 148, tamoxifen 20 mg daily", "result": "Topamax and Fluoxetine were able to be discontinued, and the dose of Abilify was significantly reduced"}, {"measurement": "time remained stable since beginning treatment", "setting": "[5]", "result": "approximately 18 months"}, {"measurement": "bipolar symptoms", "setting": "[5]; tamoxifen citrate 10 mg or 20 mg base equivalents taken regularly as only mood-stabilizing medication", "result": "no longer has bipolar symptoms"}, {"measurement": "mood stability", "setting": "[5]; tamoxifen citrate 20 mg base equivalents daily for two weeks", "result": "increased mood stability and overall feeling of well being"}, {"measurement": "mood and energy as told to the psychiatrist", "setting": "[6]; Day 9, tamoxifen citrate 20 mg qd", "result": "happier than they have been in a long time and has more energy"}, {"measurement": "onset of feeling more balanced", "setting": "[6]; tamoxifen citrate 20 mg qd added to Lithium ER, Depakote ER, Risperidone, Geodon", "result": "began feeling more balanced after only four days"}, {"measurement": "reduction of concurrent bipolar medication", "setting": "[6]; to Day 153, tamoxifen 20-30 mg daily", "result": "the doses of Depakote ER, Risperidone and Geodon were each able to be significantly reduced and Lithium was able to be discontinued"}, {"measurement": "treatment of mania", "setting": "[7]", "result": "effective in treatment of mania in patients with bipolar disorder"}, {"measurement": "anger", "setting": "[8]; Day 13, tamoxifen citrate 20 mg qd, Strattera not taken", "result": "felt less angry even without taking the Strattera"}, {"measurement": "subject's report to study coordinator", "setting": "[8]; Day 52, Lamictal lowered to 100 mg qd", "result": "noticing the ability to sense their moods better"}, {"measurement": "mood after a forgotten dose", "setting": "[8]; Day 70, dose forgotten the day before", "result": "felt more depressed than any day since they started the program"}, {"measurement": "out of control spending", "setting": "[8]; Day 77", "result": "they have not had this problem since they went on the Tamoxifen"}, {"measurement": "outbursts", "setting": "[8]; Day 84", "result": "one outburst with their spouse, the first since starting Tamoxifen"}, {"measurement": "onset of noticed difference", "setting": "[8]; listed as Tamoxifen", "result": "positive difference around four days after starting"}, {"measurement": "onset of noticed difference", "setting": "[8]; listed as tamoxifen citrate", "result": "noticed a difference within three or four days"}, {"measurement": "moods, spending, anger (synopsis)", "setting": "[8]; to Day 98, since starting Tamoxifen Citrate", "result": "their moods have been level, their normally “out of control spending” was no longer a problem and their anger and problems with spouse have all but vanished"}, {"measurement": "reduction of concurrent bipolar medication", "setting": "[8]; to Day 98, tamoxifen 20 mg daily", "result": "Lamictal was able to be discontinued, and Strattera was able to remain discontinued with mood stabilization"}, {"measurement": "symptom-free period after the course", "setting": "[9]", "result": "three months with no symptoms of depression"}, {"measurement": "time to lessening of symptoms of depression after the first dose", "setting": "[9]; single dose on day one: tamoxifen citrate 20 mg or Arimidex 1 mg", "result": "within the first eight hours"}, {"measurement": "symptoms of depression after the descending dose course", "setting": "[9]; tamoxifen citrate 20/10/5/2.5/2.5 mg days 1-5, Arimidex 1/0.5/0.25/0.25 mg days 1-4", "result": "Symptoms of depression were alleviated"}, {"measurement": "mood swings with the antiestrogen as only bipolar medication", "setting": "[3]", "result": "controls mood swings without the concurrent use of other bipolar medication"}, {"measurement": "mood swings with the antiestrogen as only bipolar medication", "setting": "[3]; listed as tamoxifen citrate", "result": "mood swings became virtually non-existent"}]}
